Test results from ChEMBL document CHEMBL1137483, “Novel chalcones as probes for in vivo imaging of beta-amyloid plaques in Alzheimer's brains” (Bioorg Med Chem, 2007).

How the values were obtained:
[1] = Displacement of [125I](E)-3-(4-(Dimethylamino-phenyl)-1-(4-iodophenyl)prop-2-en-1-one from beta amyloid(1-42) aggregates; design: species or system Homo sapiens
Liver [2] = experiment: Biodistribution in ddY mouse liver at 0.2 to 0.3 uCi, iv after 30 mins; assay type: ADME, organism-based; settings: in vivo, 0.5 h
Liver [3] = experiment: Biodistribution in ddY mouse liver at 0.2 to 0.3 uCi, iv after 2 mins; assay type: ADME, organism-based; settings: in vivo
Intestine [4] = experiment: Biodistribution in ddY mouse intestine at 0.2 to 0.3 uCi, iv after 2 mins; assay type: ADME, organism-based; settings: in vivo
Blood [5] = experiment: Biodistribution in ddY mouse blood at 0.2 to 0.3 uCi, iv after 30 mins; assay type: ADME, organism-based; settings: in vivo, 0.5 h
Lung [6] = experiment: Biodistribution in ddY mouse lung at 0.2 to 0.3 uCi, iv after 2 mins; assay type: ADME, organism-based; settings: in vivo
Lung [7] = experiment: Biodistribution in ddY mouse lung at 0.2 to 0.3 uCi, iv after 30 mins; assay type: ADME, organism-based; settings: in vivo, 0.5 h
Intestine [8] = experiment: Biodistribution in ddY mouse intestine at 0.2 to 0.3 uCi, iv after 30 mins; assay type: ADME, organism-based; settings: in vivo, 0.5 h
Heart [9] = experiment: Biodistribution in ddY mouse heart at 0.2 to 0.3 uCi, iv after 2 mins; assay type: ADME, organism-based; settings: in vivo
Kidney [10] = experiment: Biodistribution in ddY mouse kidney at 0.2 to 0.3 uCi, iv after 2 mins; assay type: ADME, organism-based; settings: in vivo
Blood [11] = experiment: Biodistribution in ddY mouse blood at 0.2 to 0.3 uCi, iv after 2 mins; assay type: ADME, organism-based; settings: in vivo
Heart [12] = experiment: Biodistribution in ddY mouse heart at 0.2 to 0.3 uCi, iv after 30 mins; assay type: ADME, organism-based; settings: in vivo, 0.5 h
Spleen [13] = experiment: Biodistribution in ddY mouse spleen at 0.2 to 0.3 uCi, iv after 2 mins; assay type: ADME, organism-based; settings: in vivo
Brain [14] = experiment: Biodistribution in ddY mouse brain at 0.2 to 0.3 uCi, iv after 30 mins; assay type: ADME, organism-based; settings: in vivo, 0.5 h
Kidney [15] = experiment: Biodistribution in ddY mouse kidney at 0.2 to 0.3 uCi, iv after 30 mins; assay type: ADME, organism-based; settings: in vivo, 0.5 h
Brain [16] = experiment: Biodistribution in ddY mouse brain at 0.2 to 0.3 uCi, iv after 2 mins; assay type: ADME, organism-based; settings: in vivo
Stomach [17] = experiment: Biodistribution in ddY mouse stomach at 0.2 to 0.3 uCi, iv after 2 mins; assay type: ADME, organism-based; settings: in vivo
Stomach [18] = experiment: Biodistribution in ddY mouse stomach after 30 mins; assay type: ADME, organism-based; settings: in vivo, 0.5 h
Spleen [19] = experiment: Biodistribution in ddY mouse spleen assessed as at 0.2 to 0.3 uCi, iv after 30 mins; assay type: ADME, organism-based; settings: in vivo, 0.5 h

| Ki [1] [nM] | Drug uptake (Liver [2]) [% ID/g] | Drug uptake (Liver [3]) [% ID/g] | Drug uptake (Intestine [4]) [% ID/g] | Drug uptake (Blood [5]) [% ID/g] | Drug uptake (Lung [6]) [% ID/g] | Drug uptake (Lung [7]) [% ID/g] | Drug uptake (Intestine [8]) [% ID/g] | Drug uptake (Heart [9]) [% ID/g] | Drug uptake (Kidney [10]) [% ID/g] | Drug uptake (Blood [11]) [% ID/g] | Drug uptake (Heart [12]) [% ID/g] | Drug uptake (Spleen [13]) [% ID/g] | Drug uptake (Brain [14]) [% ID/g] | Drug uptake (Kidney [15]) [% ID/g] | Drug uptake (Brain [16]) [% ID/g] | Drug uptake (Stomach [17]) [%ID] | Drug uptake (Stomach [18]) [%ID] | Drug uptake (Spleen [19]) [% ID/g] | SMILES |
| --- | --- | --- | --- | --- | --- | --- | --- | --- | --- | --- | --- | --- | --- | --- | --- | --- | --- | --- | --- |
| 21.4 | – | – | – | – | – | – | – | – | – | – | – | – | – | – | – | – | – | – | O=C(/C=C/c1ccc(O)cc1)c1ccc(I)cc1 |
| – | 11.04 | 10.02 | 1.31 | 1.4 | 3.4 | 1.84 | 10.38 | 3.92 | 5.32 | 1.85 | 1.18 | 1.37 | 0.49 | 11.62 | 2.04 | 0.96 | 2.45 | 0.6 | CN(C)c1ccc(/C=C/C(=O)c2ccc([125I])cc2)cc1 |
| – | 4.03 | 5.97 | 1.93 | 0.46 | 3.81 | 0.79 | 10.19 | 3.74 | 4.61 | 1.34 | 0.63 | 1.38 | 0.22 | 3.27 | 2.45 | 0.9 | 2.11 | 0.29 | COc1ccc(/C=C/C(=O)c2ccc([125I])cc2)cc1 |
| – | 6.64 | 8.39 | 1.87 | 0.57 | 10.04 | 1.04 | 12.94 | 5.92 | 9.3 | 1.89 | 0.49 | 3.56 | 0.4 | 3.51 | 3.57 | 1.22 | 2.16 | 1.04 | O=C(/C=C/c1ccc(O)cc1)c1ccc([125I])cc1 |
| 6.3 | – | – | – | – | – | – | – | – | – | – | – | – | – | – | – | – | – | – | COc1ccc(/C=C/C(=O)c2ccc(I)cc2)cc1 |
| 2.9 | – | – | – | – | – | – | – | – | – | – | – | – | – | – | – | – | – | – | CN(C)c1ccc(/C=C/C(=O)c2ccc(I)cc2)cc1 |
| – | 8.16 | 7.52 | 1.84 | 1.46 | 4.74 | 1.43 | 11.27 | 4.59 | 6.96 | 3.62 | 0.84 | 1.53 | 0.46 | 6.34 | 4.49 | 0.87 | 1.58 | 0.6 | Nc1ccc(/C=C/C(=O)c2ccc([125I])cc2)cc1 |
| 105 | – | – | – | – | – | – | – | – | – | – | – | – | – | – | – | – | – | – | Nc1ccc(/C=C/C(=O)c2ccc(I)cc2)cc1 |
| 6.3 | – | – | – | – | – | – | – | – | – | – | – | – | – | – | – | – | – | – | CNc1ccc(/C=C/C(=O)c2ccc(I)cc2)cc1 |
| – | 8.61 | 7.2 | 2.06 | 1.47 | 8.3 | 4.01 | 10.46 | 4.72 | 6.62 | 1.64 | 1.08 | 2.85 | 0.61 | 11.43 | 4.72 | 1.02 | 1.28 | 0.8 | CNc1ccc(/C=C/C(=O)c2ccc([125I])cc2)cc1 |
| > 10000 | – | – | – | – | – | – | – | – | – | – | – | – | – | – | – | – | – | – | Nc1c(/N=N/c2ccc(-c3ccc(/N=N/c4cc(S(=O)(=O)O)c5ccccc5c4N)cc3)cc2)cc(S(=O)(=O)O)c2ccccc12 [CONGO RED] |
| > 10000 | – | – | – | – | – | – | – | – | – | – | – | – | – | – | – | – | – | – | Cc1ccc2c(c1)sc(-c1ccc(N(C)C)cc1)[n+]2C [THIOFLAVIN T] |
